Legend:
[1] = tested on: Tyrosine-protein kinase ABL1 (Homo sapiens), P00519 [Y253F]; settings: Compound concentration 1000.0 nM
[2] = target: Serine/threonine-protein kinase Nek6 (Homo sapiens) (UniProt Q9HC98); settings: Compound concentration 1000.0 nM
[3] = tested on: Tyrosine-protein kinase ABL1 (Homo sapiens), P00519 [Q252H]; settings: Compound concentration 1000.0 nM
[4] = target: Ephrin type-B receptor 4 (Homo sapiens) (UniProt P54760); settings: Compound concentration 1000.0 nM
[5] = target: Dual specificity tyrosine-phosphorylation-regulated kinase 2 (Homo sapiens) (UniProt Q92630); settings: Compound concentration 1000.0 nM
[6] = target: Mitogen-activated protein kinase kinase kinase 4 (Homo sapiens) (UniProt Q9Y6R4); settings: Compound concentration 1000.0 nM
Chain of Mitogen-activated protein kinase kinase kinase 4 (Homo sapiens) (Q9Y6R4 whole entry): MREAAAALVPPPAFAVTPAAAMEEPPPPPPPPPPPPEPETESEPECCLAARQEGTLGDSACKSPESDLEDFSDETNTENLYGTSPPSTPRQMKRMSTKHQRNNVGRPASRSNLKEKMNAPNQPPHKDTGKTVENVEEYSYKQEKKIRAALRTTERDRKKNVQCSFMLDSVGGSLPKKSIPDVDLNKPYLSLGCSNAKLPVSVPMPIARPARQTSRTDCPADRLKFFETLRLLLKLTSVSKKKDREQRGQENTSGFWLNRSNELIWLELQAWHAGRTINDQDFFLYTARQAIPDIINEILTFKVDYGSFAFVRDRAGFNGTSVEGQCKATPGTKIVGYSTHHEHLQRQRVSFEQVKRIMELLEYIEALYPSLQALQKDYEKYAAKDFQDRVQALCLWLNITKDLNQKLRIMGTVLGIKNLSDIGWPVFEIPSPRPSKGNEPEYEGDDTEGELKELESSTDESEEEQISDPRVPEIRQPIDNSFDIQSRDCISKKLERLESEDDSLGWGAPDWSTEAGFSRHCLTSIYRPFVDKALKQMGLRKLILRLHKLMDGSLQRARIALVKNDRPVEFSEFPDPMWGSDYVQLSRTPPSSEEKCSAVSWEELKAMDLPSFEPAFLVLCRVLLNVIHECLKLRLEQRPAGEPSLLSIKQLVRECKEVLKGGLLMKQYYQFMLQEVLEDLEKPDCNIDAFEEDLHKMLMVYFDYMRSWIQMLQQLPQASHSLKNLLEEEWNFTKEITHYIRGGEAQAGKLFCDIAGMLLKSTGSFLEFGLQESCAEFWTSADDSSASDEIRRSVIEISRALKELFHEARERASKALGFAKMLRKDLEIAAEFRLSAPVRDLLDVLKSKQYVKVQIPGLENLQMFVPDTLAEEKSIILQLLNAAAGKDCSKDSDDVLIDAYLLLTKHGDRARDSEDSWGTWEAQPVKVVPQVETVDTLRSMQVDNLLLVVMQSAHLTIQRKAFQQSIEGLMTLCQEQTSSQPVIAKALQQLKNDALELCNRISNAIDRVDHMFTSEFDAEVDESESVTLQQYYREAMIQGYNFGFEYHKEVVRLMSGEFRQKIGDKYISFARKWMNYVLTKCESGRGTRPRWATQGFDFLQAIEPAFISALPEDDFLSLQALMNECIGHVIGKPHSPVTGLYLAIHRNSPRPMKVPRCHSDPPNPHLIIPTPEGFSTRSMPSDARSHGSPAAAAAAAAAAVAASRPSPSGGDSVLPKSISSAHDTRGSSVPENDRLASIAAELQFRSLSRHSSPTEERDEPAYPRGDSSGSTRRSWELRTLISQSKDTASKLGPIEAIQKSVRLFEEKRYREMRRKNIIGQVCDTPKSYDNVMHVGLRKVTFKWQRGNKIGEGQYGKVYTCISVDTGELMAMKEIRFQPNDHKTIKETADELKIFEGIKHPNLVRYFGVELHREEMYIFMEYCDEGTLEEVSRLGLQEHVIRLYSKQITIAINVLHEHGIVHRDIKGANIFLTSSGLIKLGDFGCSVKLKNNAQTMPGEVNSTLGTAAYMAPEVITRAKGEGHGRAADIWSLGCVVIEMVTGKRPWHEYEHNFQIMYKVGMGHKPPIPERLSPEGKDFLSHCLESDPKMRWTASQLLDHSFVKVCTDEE

[7] = target: Hormonally up-regulated neu tumor-associated kinase (Homo sapiens) (UniProt P57058); settings: Compound concentration 1000.0 nM
[8] = target: MAP kinase-interacting serine/threonine-protein kinase 2 (Homo sapiens) (UniProt Q9HBH9); settings: Compound concentration 1000.0 nM
[9] = target: MAP kinase-activated protein kinase 2 (Homo sapiens) (UniProt P49137); settings: Compound concentration 1000.0 nM
[10] = tested on: Phosphatidylinositol 4,5-bisphosphate 3-kinase catalytic subunit alpha isoform (Homo sapiens), P42336 [M1043I]; settings: Compound concentration 1000.0 nM
[11] = target: L-type Ca2+ channel (diltiazem site, benzothiazepines) (Rattus norvegicus, UniProt P22002+P27732+Q02485); test: Ca2+ channel (L, diltiazem site) (benzothiazepines) Eurofins-Cerep binding assay; assay type: protein assay; set-up: incubation time 120 min, incubation temperature RT, ligand concentration 15 nM; settings: rat cerebral cortex, probe [3H]diltiazem (15 nM), compound concentration 10 uM, read-out: % Inhibition of Control Specific Binding (Mean n=2)
[12] = target: Translocator protein (Rattus norvegicus) (UniProt P16257); test: BZD (peripheral) Eurofins-Cerep binding assay; set-up: ligand concentration 0.2 nM; settings: filed as antagonist, Compound concentration 10.0 uM
Chain of Translocator protein (Rattus norvegicus) (P16257 whole entry, looked up): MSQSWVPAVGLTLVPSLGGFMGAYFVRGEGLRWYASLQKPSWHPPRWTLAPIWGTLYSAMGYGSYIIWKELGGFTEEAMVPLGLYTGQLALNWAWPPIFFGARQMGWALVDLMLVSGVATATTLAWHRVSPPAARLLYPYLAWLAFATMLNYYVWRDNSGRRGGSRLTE

[13] = target: Peroxisome proliferator-activated receptor gamma (Homo sapiens) (UniProt P37231); test: PPARgamma (h) Eurofins-Cerep binding assay; set-up: ligand concentration 5 nM; settings: filed as agonist, Compound concentration 10.0 uM
[14] = target: Serine/threonine-protein kinase WNK4 (Homo sapiens) (UniProt Q96J92); settings: Compound concentration 1000.0 nM
[15] = tested on: Epidermal growth factor receptor (Homo sapiens), P00533 [L861Q]; settings: Compound concentration 1000.0 nM
[16] = tested on: Serine/threonine-protein kinase B-raf (Homo sapiens), P15056 [V600E]; settings: Compound concentration 1000.0 nM
[17] = tested on: Tyrosine-protein kinase ABL1 (Homo sapiens), P00519 [F317I]; settings: Compound concentration 1000.0 nM
[18] = target: Serine/threonine-protein kinase LATS1 (Homo sapiens) (UniProt O95835); settings: Compound concentration 1000.0 nM
[19] = target: Ankyrin repeat and protein kinase domain-containing protein 1 (Homo sapiens) (UniProt Q8NFD2); settings: Compound concentration 1000.0 nM
[20] = target: Cannabinoid receptor 2 (Homo sapiens) (UniProt P34972); test: CB2 (h) Eurofins-Cerep binding assay; set-up: ligand concentration 0.8 nM; settings: filed as agonist, Compound concentration 10.0 uM
[21] = target: Tyrosine-protein kinase receptor Tie-1 (Homo sapiens) (UniProt P35590); settings: Compound concentration 1000.0 nM
[22] = target: T1, Glutamate NMDA receptor (Rattus norvegicus) (UniProt P35439+Q00959+Q00960+Q00961+Q62645+Q8VHN2+Q9R1M7); test: NMDA Eurofins-Cerep binding assay; assay type: protein-complex assay; set-up: ligand concentration 5 nM; settings: filed as antagonist, Compound concentration 10.0 uM
[23] = target: Serine/threonine-protein kinase Sgk3 (Homo sapiens) (UniProt Q96BR1); settings: Compound concentration 1000.0 nM
[24] = target: Alpha-2C adrenergic receptor (Homo sapiens) (UniProt P18825); settings: Compound concentration 10.0 uM
[25] = target: Serine/threonine-protein kinase 36 (Homo sapiens) (UniProt Q9NRP7); settings: Compound concentration 1000.0 nM
[26] = target: Mast/stem cell growth factor receptor Kit (Homo sapiens) (UniProt P10721); settings: Compound concentration 1000.0 nM
[27] = target: Mu-type opioid receptor (Homo sapiens) (UniProt P35372); test: mu (MOP) (h) Eurofins-Cerep binding assay; set-up: ligand concentration 0.5 nM; settings: filed as agonist, Compound concentration 10.0 uM
[28] = target: T1, Glutamate NMDA receptor (Rattus norvegicus); test: PCP Eurofins-Cerep binding assay; assay type: protein-complex assay; set-up: ligand concentration 10 nM; settings: filed as antagonist, Compound concentration 10.0 uM
[29] = target: Mitogen-activated protein kinase 4 (Homo sapiens) (UniProt P31152); settings: Compound concentration 1000.0 nM
[30] = target: Proto-oncogene tyrosine-protein kinase ROS (Homo sapiens) (UniProt P08922); settings: Compound concentration 1000.0 nM
[31] = target: Serine/threonine-protein kinase TAO2 (Homo sapiens) (UniProt Q9UL54); settings: Compound concentration 1000.0 nM
Chain of Serine/threonine-protein kinase TAO2 (Homo sapiens) (Q9UL54 whole entry): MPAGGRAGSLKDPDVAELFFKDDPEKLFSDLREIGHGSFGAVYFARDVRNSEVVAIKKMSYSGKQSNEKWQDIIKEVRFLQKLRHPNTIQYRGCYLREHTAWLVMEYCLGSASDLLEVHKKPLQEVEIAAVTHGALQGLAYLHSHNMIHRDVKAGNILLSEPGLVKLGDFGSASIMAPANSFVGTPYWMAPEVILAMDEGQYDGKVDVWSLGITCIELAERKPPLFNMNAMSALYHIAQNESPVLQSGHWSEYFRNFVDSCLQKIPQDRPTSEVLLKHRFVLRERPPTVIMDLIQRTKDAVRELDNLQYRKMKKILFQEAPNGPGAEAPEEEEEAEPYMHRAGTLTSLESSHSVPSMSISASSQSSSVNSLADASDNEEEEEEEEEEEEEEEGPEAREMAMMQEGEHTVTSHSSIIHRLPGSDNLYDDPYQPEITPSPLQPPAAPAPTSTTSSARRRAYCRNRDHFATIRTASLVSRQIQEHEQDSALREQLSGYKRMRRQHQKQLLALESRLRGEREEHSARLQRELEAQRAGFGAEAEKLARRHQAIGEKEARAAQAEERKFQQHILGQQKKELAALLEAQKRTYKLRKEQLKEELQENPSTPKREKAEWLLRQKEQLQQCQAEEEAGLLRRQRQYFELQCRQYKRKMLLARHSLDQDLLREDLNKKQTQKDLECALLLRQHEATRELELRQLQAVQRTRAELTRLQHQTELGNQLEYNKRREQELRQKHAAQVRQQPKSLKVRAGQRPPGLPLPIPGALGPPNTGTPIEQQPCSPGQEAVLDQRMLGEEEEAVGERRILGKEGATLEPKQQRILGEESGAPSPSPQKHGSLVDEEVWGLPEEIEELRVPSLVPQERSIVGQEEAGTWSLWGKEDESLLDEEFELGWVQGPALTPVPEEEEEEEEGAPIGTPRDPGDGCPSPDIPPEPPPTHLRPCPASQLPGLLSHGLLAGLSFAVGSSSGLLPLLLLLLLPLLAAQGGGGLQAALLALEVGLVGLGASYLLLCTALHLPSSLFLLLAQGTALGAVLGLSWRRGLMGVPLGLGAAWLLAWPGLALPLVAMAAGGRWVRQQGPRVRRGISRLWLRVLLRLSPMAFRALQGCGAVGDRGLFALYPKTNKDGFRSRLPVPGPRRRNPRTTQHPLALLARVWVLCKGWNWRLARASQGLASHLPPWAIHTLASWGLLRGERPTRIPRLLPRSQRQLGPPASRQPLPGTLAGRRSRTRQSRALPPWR

[32] = target: Ribosomal protein S6 kinase alpha-3 (Homo sapiens) (UniProt P51812); settings: Compound concentration 1000.0 nM
Chain of Ribosomal protein S6 kinase alpha-3 (Homo sapiens) (P51812 whole entry): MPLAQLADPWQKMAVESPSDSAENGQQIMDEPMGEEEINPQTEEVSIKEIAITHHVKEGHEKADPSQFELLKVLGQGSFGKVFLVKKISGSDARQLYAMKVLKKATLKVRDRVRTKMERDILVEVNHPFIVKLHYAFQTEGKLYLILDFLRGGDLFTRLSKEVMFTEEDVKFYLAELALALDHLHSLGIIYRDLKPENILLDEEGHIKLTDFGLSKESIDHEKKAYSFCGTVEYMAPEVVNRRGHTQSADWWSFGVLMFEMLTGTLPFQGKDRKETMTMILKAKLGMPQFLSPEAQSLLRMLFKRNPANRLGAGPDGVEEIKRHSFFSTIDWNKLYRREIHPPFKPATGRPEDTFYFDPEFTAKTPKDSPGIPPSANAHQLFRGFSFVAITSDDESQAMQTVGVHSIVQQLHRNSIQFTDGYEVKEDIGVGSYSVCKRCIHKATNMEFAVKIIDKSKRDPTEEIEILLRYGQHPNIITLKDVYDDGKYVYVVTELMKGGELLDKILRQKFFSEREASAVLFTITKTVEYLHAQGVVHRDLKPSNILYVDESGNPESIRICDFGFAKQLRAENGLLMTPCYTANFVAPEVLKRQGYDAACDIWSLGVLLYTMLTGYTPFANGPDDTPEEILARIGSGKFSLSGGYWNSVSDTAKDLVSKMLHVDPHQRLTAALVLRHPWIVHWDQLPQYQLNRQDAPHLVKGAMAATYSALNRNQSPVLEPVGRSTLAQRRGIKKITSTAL

[33] = target: T2, 5-hydroxytryptamine receptor 3A (Homo sapiens) (UniProt P46098); test: 5-HT3 (h) Eurofins-Cerep binding assay; set-up: ligand concentration 0.5 nM; settings: filed as antagonist, Compound concentration 10.0 uM
T2 sequence (whole entry): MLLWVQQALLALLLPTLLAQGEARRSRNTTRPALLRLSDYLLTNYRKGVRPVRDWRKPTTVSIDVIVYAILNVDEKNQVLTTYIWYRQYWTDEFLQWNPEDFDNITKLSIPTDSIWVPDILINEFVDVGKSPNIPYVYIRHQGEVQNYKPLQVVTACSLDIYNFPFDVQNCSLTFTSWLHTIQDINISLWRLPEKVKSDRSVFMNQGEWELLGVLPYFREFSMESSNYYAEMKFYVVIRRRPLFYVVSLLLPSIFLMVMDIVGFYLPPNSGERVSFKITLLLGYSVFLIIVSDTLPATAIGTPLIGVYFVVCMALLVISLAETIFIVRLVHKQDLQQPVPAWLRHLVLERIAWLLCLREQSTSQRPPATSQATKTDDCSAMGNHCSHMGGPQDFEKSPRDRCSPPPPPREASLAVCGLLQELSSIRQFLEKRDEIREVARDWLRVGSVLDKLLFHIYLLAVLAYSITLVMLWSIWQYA

[34] = target: cGMP-dependent protein kinase 1 (Homo sapiens) (UniProt Q13976); settings: Compound concentration 1000.0 nM
[35] = target: Mitogen-activated protein kinase kinase kinase 6 (Homo sapiens) (UniProt O95382); settings: Compound concentration 1000.0 nM
Chain of Mitogen-activated protein kinase kinase kinase 6 (Homo sapiens) (O95382 whole entry): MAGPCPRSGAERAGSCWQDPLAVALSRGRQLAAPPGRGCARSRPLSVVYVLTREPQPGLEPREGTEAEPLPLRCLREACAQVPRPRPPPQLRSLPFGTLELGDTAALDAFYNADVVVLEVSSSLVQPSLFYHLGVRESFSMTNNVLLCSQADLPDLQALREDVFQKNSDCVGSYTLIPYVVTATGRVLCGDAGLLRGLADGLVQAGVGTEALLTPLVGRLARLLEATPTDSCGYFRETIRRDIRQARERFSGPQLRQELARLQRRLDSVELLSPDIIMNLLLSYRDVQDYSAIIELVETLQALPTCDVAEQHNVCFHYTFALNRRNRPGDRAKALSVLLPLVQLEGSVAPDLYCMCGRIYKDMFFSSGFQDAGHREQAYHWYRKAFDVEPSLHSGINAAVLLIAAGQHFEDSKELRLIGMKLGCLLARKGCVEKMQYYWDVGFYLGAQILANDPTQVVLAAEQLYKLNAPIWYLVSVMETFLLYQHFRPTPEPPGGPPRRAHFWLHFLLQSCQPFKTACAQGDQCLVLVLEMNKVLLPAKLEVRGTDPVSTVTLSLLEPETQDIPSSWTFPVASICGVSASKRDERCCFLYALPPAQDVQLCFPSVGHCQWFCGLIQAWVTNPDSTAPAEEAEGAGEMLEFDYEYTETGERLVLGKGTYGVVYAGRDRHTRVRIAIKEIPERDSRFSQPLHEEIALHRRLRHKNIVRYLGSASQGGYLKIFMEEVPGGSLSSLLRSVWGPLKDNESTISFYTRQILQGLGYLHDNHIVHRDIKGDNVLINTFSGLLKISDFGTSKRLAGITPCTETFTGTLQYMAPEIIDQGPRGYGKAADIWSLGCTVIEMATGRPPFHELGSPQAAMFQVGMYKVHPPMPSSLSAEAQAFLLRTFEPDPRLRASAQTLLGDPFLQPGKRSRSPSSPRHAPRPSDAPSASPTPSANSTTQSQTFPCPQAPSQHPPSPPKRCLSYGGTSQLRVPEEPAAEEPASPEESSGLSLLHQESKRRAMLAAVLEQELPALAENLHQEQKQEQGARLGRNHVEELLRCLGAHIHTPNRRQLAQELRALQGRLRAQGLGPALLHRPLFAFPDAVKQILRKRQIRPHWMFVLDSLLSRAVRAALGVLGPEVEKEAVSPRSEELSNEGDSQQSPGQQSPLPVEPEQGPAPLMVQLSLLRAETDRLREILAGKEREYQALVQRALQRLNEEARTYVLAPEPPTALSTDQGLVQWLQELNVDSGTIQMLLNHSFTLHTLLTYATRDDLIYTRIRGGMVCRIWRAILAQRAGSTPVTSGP

[36] = target: Tyrosine-protein kinase Blk (Homo sapiens) (UniProt P51451); settings: Compound concentration 1000.0 nM
[37] = target: Calcium/calmodulin-dependent protein kinase kinase 2 (Homo sapiens) (UniProt Q96RR4); settings: Compound concentration 1000.0 nM

Structure (SMILES) | residual activity [1] | residual activity [2] | residual activity [3] | residual activity [4] | residual activity [5] | residual activity [6] | residual activity [7] | residual activity [8] | residual activity [9] | residual activity [10] | inhibition at 120 min, 10 µM [11] | % Inhibition of Control Specific Binding (Mean n=2) [12] | % Inhibition of Control Specific Binding (Mean n=2) [13] | residual activity [14] | residual activity [15] | residual activity [16] | residual activity [17] | residual activity [18] | residual activity [19] | % Inhibition of Control Specific Binding (Mean n=2) [20] | other results
COc1ccc2c(c1)O[C@@H](c1ccc(OC)c(OC)c1)C[C@H]2NC(=O)C1(c2ccc3c(c2)OC(F)(F)O3)CC1 [A-1596586] | 78% | 100% | 90% | 91% | 75% | 95% | 100% | 93% | 100% | 91% | 29.7% | 95.9% | -5.5% | 85% | 100% | 100% | 93% | 92% | 76% | 30.2% | residual activity [21]: 100%; % Inhibition of Control Specific Binding (Mean n=2) [22]: 8.7%; residual activity [23]: 84%; inhibition [24]: 15.8%; residual activity [25]: 100%; residual activity [26]: 86%; % Inhibition of Control Specific Binding (Mean n=2) [27]: 9.8%; % Inhibition of Control Specific Binding (Mean n=2) [28]: -6.1%; residual activity [29]: 99%; residual activity [30]: 97%; residual activity [31]: 83%; residual activity [32]: 81%; % Inhibition of Control Specific Binding (Mean n=2) [33]: -3%; residual activity [34]: 100%; residual activity [35]: 81%; residual activity [36]: 91%; residual activity [37]: 96%
COc1ccc2c(c1)O[C@H](c1ccc(OC)c(OC)c1)C[C@@H]2NC(=O)C1(c2ccc3c(c2)OC(F)(F)O3)CC1 [A-1596584] | 93% | 100% | 100% | 88% | 100% | 98% | 72% | 100% | 100% | 84% | -7.6% | 79.1% | 13.7% | 83% | 100% | 93% | 100% | 65% | 100% | 73.7% | residual activity [21]: 100%; % Inhibition of Control Specific Binding (Mean n=2) [22]: 1.3%; residual activity [23]: 100%; inhibition [24]: 10.1%; residual activity [25]: 94%; residual activity [26]: 100%; % Inhibition of Control Specific Binding (Mean n=2) [27]: 11.3%; % Inhibition of Control Specific Binding (Mean n=2) [28]: 4%; residual activity [29]: 100%; residual activity [30]: 73%; residual activity [31]: 98%; residual activity [32]: 74%; % Inhibition of Control Specific Binding (Mean n=2) [33]: 0.8%; residual activity [34]: 100%; residual activity [35]: 81%; residual activity [36]: 100%; residual activity [37]: 100%
